Results from US10774046B2, “Inhibitors for the treatment of cancer and related methods” (UNIVERSITY OF LOUISVILLE RESEARCH FOUNDATION, INC., priority 2017, dated 2020).

Key:
H460 cells [1] = test: proliferation, viable cell count by trypan blue exclusion; type: cell-based, human; details: for proliferation (cell counts relative to DMSO): H460, counts at 72 hours shown
Description: Cells were incubated in 20% trypan blue (Sigma) for 5 minutes. Cells excluding trypan blue were counted using a standard hemocytometer (Hausser Scientific) to determine total numbers of viable cells. Data are expressed as mean±SD of three experiments.
H460 non-small cell lung cancer cells were plated in 24 well plates and exposed to increasing concentrations of the indicated inhibitors of Formula IV (FBR1-02 corresponds to
DMSO was used as vehicle. After 24, 48 and 72 hours of exposure, cells were detached and viable cells were counted by Trypan blue exclusion (representative counts at 48 hours shown).
Method: H460 cells were plated in 24 well plates and exposed to increasing concentrations of FB4-31 to FB4-36 and 5MPN. DMSO was used as a vehicle. After 24, 48 and 72 hours of exposure, cells were detached, and viable cells were counted by Trypan blue exclusion (representative counts at 72 hours shown).

H460 cells [2] = test: glycolysis assay (3H2O from 5-[3H]glucose); type: cell-based, human; details: H460
Description: H460 cells were exposed to the indicated concentrations of MPN-2 and glycolysis production was examined. Cells growing in 6-well plates were incubated in 500 μl of complete medium containing 1 μCi of 5-[^3H]glucose per well for 60 min in 5% CO2 at 37° C. Media was collected, ^3H2O formed via glycolysis from the 5-[^3H]glucose measured and counts normalized as previously described. For example, the medium was then collected and centrifuged to pellet any suspended cells. To separate the ^3H2O formed via glycolysis from the 5-[^3H]glucose added to the medium, an evaporation technique in a sealed system was utilized. Briefly, 150 μl aliquots of medium were added to open tubes that were placed upright inside scintillation vials containing 1 ml of H2O. The scintillation vials were sealed, and the ^3H2O produced by glycolysis through enolase and released to the medium was allowed to equilibrate with the H2O in the outer vial for 48 h at 37° C. The amounts of ^3H2O that had diffused into the surrounding H2O was measured on a Tri-Carb 2910 liquid scintillation analyzer (Perkin Elmer) and compared with ^3H2O and 5-[^3H]glucose standards. Protein concentration was determined using the BCA assay and counts were normalized to protein concentration. All data are expressed as the mean±SD of three experiments. Statistical significance was assessed by the two-sample t test (independent variable).
Method: To examine glycolysis, H460 cells growing in 6-well plates were incubated in 500 μl of complete medium containing 1 μCi of 5-[^3H] glucose per well for 60 min in 5% CO2 at 37° C. The medium was then collected and centrifuged to pellet any suspended cells. To separate the ^3H2O formed via glycolysis from the 5-[^3H]glucose added to the medium, an evaporation technique in a sealed system was utilized. Briefly, 150 μl aliquots of medium were added to open tubes that were placed upright inside scintillation vials containing 1 ml of H2O. The scintillation vials were sealed, and the ^3H2O produced by glycolysis through enolase and released to the medium was allowed to equilibrate with the H2O in the outer vial for 48 h at 37° C. The amounts of ^3H2O that had diffused into the surrounding H2O was measured on a Tri-Carb 2910 liquid scintillation analyzer (Perkin Elmer) and compared with ^3H2O and 5-[^3H]glucose standards. Protein concentration was determined using the BCA assay and counts were normalized to protein concentration (previously described in CHESNEY et al. Oncotarget. 2014; 5(16):6670-6686.)

H460 cells [3] = test: F2,6BP measurement in cells (coupled enzyme reaction); type: cell-based, human; details: H460, effects at 2.5 μM
Description: Cells or tissues were prepared as previously described and F2,6BP content measured using a coupled enzyme reaction following a modification of the method of Van Schaftingen et al (VAN SCHAFTINGEN E et al. “A kinetic study of pyrophosphate:fructose-6-phosphate phosphotransferase from potato tubers. Application to a microassay of fructose 2,6-bisphosphate” Eur J Biochem (1982) Vol. 129, No. 1, pp. 191-195) and normalized to total cellular protein measured by the bicinchoninic acid assay (BCA, Thermo Scientific). For example, H460 cells were exposed to the indicated concentrations of MPN-2. In order to measure F2,6BP, cells were harvested, washed with PBS, lysed in NaOH/Tris acetate by heating at 80° C. and lysates neutralized to pH 7.2. F2,6BP content was measured using a coupled enzyme reaction following a modified method of Van Schaftingen et al (VAN SCHAFTINGEN E et al. “A kinetic study of pyrophosphate:fructose-6-phosphate phosphotransferase from potato tubers. Application to a microassay of fructose 2,6-bisphosphate” Eur J Biochem (1982) Vol. 129, No. 1, pp. 191-195). The F2,6BP concentration was normalized to total cellular protein measured by the bicinchoninic acid assay (BCA, Thermo Scientific). All data are expressed as the mean±SD of three experiments. Statistical significance was assessed by the two-sample t test (independent variable).
Method: In order to measure F26BP, H460 cells were exposed to increasing concentrations of the agents and were harvested, washed with PBS, lysed in NaOH/Tris acetate by heating at 80° C. and lysates neutralized to pH 7.2. F26BP content was measured using a coupled enzyme reaction following a modified method of Van Schaftingen et al. (Eur J Biochem. 1982; 129(1):191-195). The F26BP concentration was normalized to total cellular protein measured by the bicinchoninic acid assay (BCA, Thermo Scientific).

human recombinant PFKFB4 = human recombinant PFKFB4 (Homo sapiens, UniProt Q16877); test: ADP-Glo kinase assay; type: biochemical
Description: The fructose-6-phosphate kinase activity of human recombinant PFKFB4 in the presence of DMSO±indicated 5MPN concentrations was assayed as previously described. The activity of 5MPN against 97 kinases was examined using a commercially available active-site dependent competition binding assay core service (KINOMEscanEDGE) that quantifies the capacity of test agents to compete with an immobilized, active-site directed ligand using a DNA-tagged kinase and immobilized ligand and compound. For example, enzyme inhibition was studied using an ADP-Glo assay. The effect of MPN-2 on the activity of recombinant human PFKFB4 enzyme was examined in an ADP-Glo assay (Promega), which measures ADP formed from a kinase reaction. ADP is converted into ATP, which is converted into light by a luciferase. PFKFB4 protein was exposed to MPN-2 at indicated concentrations in the presence of ATP and fructose-6-phosphate and following manufacturer's instructions, ADP-Glo and kinase detections reagents were added. The data are shown as the decrease in luminescence caused by MPN-2 relative to DMSO.
Method: The efficacy of Formula (VIII) in inhibition of the kinase activity of the PFKFB4 enzyme was examined by exposing recombinant human PFKFB4 protein to Formula (VIII) in the ADP-Glo kinase assay (Promega) which measures ADP formed through a kinase reaction. Briefly, recombinant protein, ATP, substrate and Formula (VIII) were incubated together for the kinase reaction followed by the addition of ADP-Glo reagent, used to terminate the kinase reaction. Lastly, a kinase detection reagent was added to convert the newly formed ADP to ATP which was measured by a luciferase reaction. Data are shown in FIG. 10 as the decrease in luminescence caused by Formula (VIII) relative to DMSO.
Method: The efficacy of FB4-32 and FB4-35 in inhibition of the kinase activity of the PFKFB4 enzyme was examined by exposing recombinant human PFKFB4 protein to FB4-32 and FB4-35 in the ADP-Glo kinase assay (Promega) which measures ADP formed through a kinase reaction. Briefly, recombinant protein, ATP, substrate and FB4-32 or FB4-35 were incubated together for the kinase reaction followed by the addition of ADP-Glo reagent to terminate the kinase reaction. Last, a kinase detection reagent was added to convert the newly formed ADP to ATP which was measured by a luciferase reaction. Data are shown as the decrease in luminescence caused by FB4-32 and FB4-35 relative to DMSO.

[4] = pharmacokinetic profile after IV and oral administration; type: in vivo; details: mice
Description: Method: The pharmacokinetic profile of FB4-32 was determined in mice dosed orally and IV with FB4-32. Nine time points (n=3 per time point) were used to determine indicated PK parameters calculated using WinNonLin v5.0. Plasma samples were extracted using acetonitrile and analyzed by LC/MS-MS using a PhenomexSynergi Polar-RP 4 micron 50×2.0 mm column eluted with a biphasic mobile phase (0.5% formic acid in acetonitrile and water).

Chain of human recombinant PFKFB4 (Q16877 whole entry): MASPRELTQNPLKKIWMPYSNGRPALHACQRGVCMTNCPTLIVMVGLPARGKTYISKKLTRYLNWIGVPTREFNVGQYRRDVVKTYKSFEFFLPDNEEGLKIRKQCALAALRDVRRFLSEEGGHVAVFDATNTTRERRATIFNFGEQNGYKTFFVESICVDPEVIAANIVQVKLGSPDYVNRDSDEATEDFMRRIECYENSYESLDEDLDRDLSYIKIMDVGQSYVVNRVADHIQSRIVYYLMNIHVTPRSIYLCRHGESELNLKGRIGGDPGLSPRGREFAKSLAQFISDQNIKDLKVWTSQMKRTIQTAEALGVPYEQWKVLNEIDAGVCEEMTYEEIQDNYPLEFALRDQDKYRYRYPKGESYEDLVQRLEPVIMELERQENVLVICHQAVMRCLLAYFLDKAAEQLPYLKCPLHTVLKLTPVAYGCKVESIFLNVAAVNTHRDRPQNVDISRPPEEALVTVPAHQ

Structure (SMILES)	proliferation (H460 cells [1]; H460, Formula IV compounds, counts at 48 hours shown)	proliferation (cell counts relative to DMSO) (H460 cells [1])	glycolysis (production of 3H2O relative to DMSO) (H460 cells [2])	F26BP (normalized to cellular protein) (H460 cells [3])	kinase activity of the PFKFB4 enzyme (luminescence relative to DMSO) (human recombinant PFKFB4)	oral bioavailability [4]
O=[N+]([O-])OCCCCCNc1ccnc2ccccc12 [FBR1-02]	decreased proliferation	–	–	–	–	–
COc1cccc2c(NCCCCCNC(=O)CBr)ccnc12 [FB4-35, 2-Bromo-N-(5-((8-methoxyquinolin-4-yl)amino)pentyl)acetamide]	–	decreased the proliferation of H460 cells in vitro with higher potency than 5MPN	dose-dependent decrease	decrease	inhibited	–
COc1cccc2c(NCCCCCCNC(=O)C(F)(F)F)ccnc12 [FB4-32, 2,2,2-Trifluoro-N-(6-((8-methoxyquinolin-4-yl)amino)hexyl)acetamide]	–	decreased the proliferation of H460 cells in vitro with higher potency than 5MPN	dose-dependent decrease	decrease	inhibited	found to have oral bioavailability
